Source: US20200131669A1, “CYCLIC PEPTIDE COMPOUND HAVING HIGH MEMBRANE PERMEABILITY, AND LIBRARY CONTAINING SAME” (Chugai Seiyaku Kabushiki Kaisha, priority 2017, published 2020)
Starred links: 1 amine or outer side, 2 acyl side, 3 side chain; linkers in the order of their positions; H or OH if unused. Positions of bridges follow the written chain, without caps; N, C: chain ends. Non-standard residues stand in square brackets, D forms with d. Residues, ends and D or L forms follow the SMILES beside them. *: point of attachment. hPhe(3-Cl) = N[C@@H](CCc1cccc(Cl)c1)C(=O)O; hPhe(4-Cl) = N[C@@H](CCc1ccc(Cl)cc1)C(=O)O; X14 = O=C([C@H](CCc1ccccc1Cl)N[*:1])[*:2]; hhPhe = N[C@@H](CCCc1ccccc1)C(=O)O; NMeF = CN[C@@H](Cc1ccccc1)C(=O)O; NMeI = CC[C@H](C)[C@H](NC)C(=O)O; NMeL = CN[C@@H](CC(C)C)C(=O)O; NMeV = CN[C@H](C(=O)O)C(C)C; NMeA = CN[C@@H](C)C(=O)O; Piperidide = C1CCN(*)CC1; NPrGly = CCCNCC(=O)O; X11 = FC(F)C(F)(F)C*; X2 = Fc1cncc(C*)c1; Sar = CNCC(=O)O; tBu = CC(C)(C)*

experiment: Caco-2 membrane permeability, improved method as used in the following Examples (96-well, 20 to 24 h preincubation); type: in vitro ADME; conditions: Caco-2, Caco-2
Method in brief: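 Papp (cm/sec) was derived from LC/MS of basal samples collected 180 min after apical dosing in FaSSIF/HBSS pH 6.0 with 1% DMSO, against a basal HBSS pH 7.4 receiver containing 4% BSA. Three-week Caco-2 cultures were first preincubated with compound in DMEM+FaSSIF at 37 °C for 20–24 h.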

SMILES | Papp A→B [×10⁻⁶ cm/s]
CC[C@H](C)[C@@H]1NC(=O)[C@H](Cc2ccccc2)N(C)C(=O)CN(C)C(=O)C[C@@H](C(=O)N2CCCCC2)NC(=O)[C@H](C(C)C)N(C)C(=O)[C@H](CCc2ccc(Cl)cc2)NC(=O)[C@H](CC(C)C)N(C)C(=O)[C@H](CC(C)C)N(C)C(=O)CN(C)C(=O)[C@H]([C@@H](C)O)NC(=O)[C@H](CC(C)C)N(C)C1=O [pd362] ([Sar][NMeF]I[NMeL]T[Sar][NMeL][NMeL][hPhe(4-Cl)][NMeV]D-Piperidide; lactam N-11) | 1
CC(C)C[C@H]1C(=O)N[C@@H](CCCc2ccccc2)C(=O)N(C)[C@@H](Cc2ccccc2)C(=O)N(C)[C@@H](C(C)C)C(=O)N[C@H](C(=O)N2CCCCC2)CC(=O)N[C@H](C)C(=O)N(C)[C@@H](Cc2ccccc2)C(=O)N[C@@H](C(C)C)C(=O)N(C)[C@@H](CC(C)C)C(=O)N[C@@H]([C@@H](C)O)C(=O)N(C)CC(=O)N1C [pd364] ([dA][NMeF]V[NMeL]T[Sar][NMeL][hhPhe][NMeF][NMeV]D-Piperidide; lactam N-11) | 1

same assay, conditions: human, Caco-2, Caco-2

SMILES | Papp A→B at 180 min [×10⁻⁶ cm/s]
CC[C@H](C)[C@H]1C(=O)N[C@@H]([C@@H](C)O)C(=O)N(C)CC(=O)N(C)[C@@H](CC(C)C)C(=O)N[C@H](C(=O)N2CCCCC2)CC(=O)N(C)[C@@H](C)C(=O)N[C@@H](CC(C)C)C(=O)N(C)[C@@H](CC(C)C)C(=O)N(C)[C@@H](C)C(=O)N[C@@H](COc2ccccc2Cl)C(=O)N(C)[C@@H](Cc2ccccc2)C(=O)N1C [pd341] | 1.4
CC(C)C[C@H]1C(=O)N[C@@H](COC(C)(C)C)C(=O)N(C)[C@@H](Cc2ccccc2)C(=O)N(C)[C@@H](C(C)C)C(=O)N[C@H](C(=O)N2CCCCC2)CC(=O)N[C@H](C(C)C)C(=O)N(C)[C@@H](Cc2ccccc2)C(=O)N[C@@H](COc2cccc(Cl)c2)C(=O)N(C)[C@@H](C)C(=O)N[C@@H]([C@@H](C)O)C(=O)N(C)CC(=O)N1C [pd342] | 1.9
CC(C)C[C@H]1C(=O)N[C@@H](COC(C)(C)C)C(=O)N(C)[C@@H](Cc2ccccc2)C(=O)N(C)[C@@H](C(C)C)C(=O)N[C@H](C(=O)N2CCCCC2)CC(=O)N[C@H](C)C(=O)N(C)[C@@H](Cc2ccccc2)C(=O)NC(COc2cccc(Cl)c2)C(=O)N(C)[C@@H](C(C)C)C(=O)N[C@@H]([C@@H](C)O)C(=O)N(C)CC(=O)N1C (stereo partly shown) [pd343] | 2.2
CC[C@H](C)[C@H]1C(=O)N[C@@H]([C@@H](C)O)C(=O)N(C)CC(=O)N(C)[C@@H](CC(C)C)C(=O)N[C@H](C(=O)N2CCCCC2)CC(=O)N(C)[C@@H](C)C(=O)NC(COc2cccc(Cl)c2)C(=O)N(C)[C@@H](CC(C)C)C(=O)N(C)[C@@H](Cc2ccccc2)C(=O)N[C@@H](C)C(=O)N(C)[C@@H](Cc2ccccc2)C(=O)N1C (stereo partly shown) [pd344] | 1.3
CC[C@H](C)[C@H]1C(=O)N[C@@H]([C@@H](C)O)C(=O)N(C)CC(=O)N(C)[C@@H](C)C(=O)N[C@H](C(=O)N2CCCCC2)CC(=O)N(C)[C@@H](C)C(=O)N[C@@H](C(C)C)C(=O)N(C)[C@@H](CC(C)C)C(=O)N(C)[C@@H](Cc2ccccc2)C(=O)NC(COc2cccc(Cl)c2)C(=O)N(C)[C@@H](Cc2ccccc2)C(=O)N1C (stereo partly shown) [pd345] | 1.8
CC(C)C[C@H]1C(=O)N[C@@H](COC(C)(C)C)C(=O)N(C)[C@@H](Cc2ccccc2)C(=O)N(C)[C@@H](C(C)C)C(=O)N[C@H](C(=O)N2CCCCC2)CC(=O)N[C@H](C(C)C)C(=O)N(C)[C@@H](Cc2ccccc2)C(=O)N[C@@H](COCc2cncc(F)c2)C(=O)N(C)[C@@H](CC(C)C)C(=O)N[C@@H]([C@@H](C)O)C(=O)N(C)CC(=O)N1C [pd346] ([dV][NMeF]S(X2)[NMeL]T[Sar][NMeL]S(tBu)[NMeF][NMeV]D-Piperidide; lactam N-11) | 2.4
CCCN1CC(=O)N(C)[C@@H](Cc2ccccc2)C(=O)N[C@@H](COCC(F)(F)C(F)F)C(=O)N(C)[C@@H](CC(C)C)C(=O)N[C@@H]([C@@H](C)O)C(=O)N(C)CC(=O)N(C)[C@@H](Cc2ccccc2)C(=O)N(C)[C@@H](CC(C)C)C(=O)N[C@@H](COC(C)(C)C)C(=O)N(C)[C@@H](CC(C)C)C(=O)N[C@H](C(=O)N2CCCCC2)CC1=O [pd349] ([NPrGly][NMeF]S(X11)[NMeL]T[Sar][NMeF][NMeL]S(tBu)[NMeL]D-Piperidide; lactam N-11) | 1.8
CC(C)C[C@H]1C(=O)N[C@@H](COC(C)(C)C)C(=O)N(C)[C@@H](Cc2ccccc2)C(=O)N(C)[C@@H](C(C)C)C(=O)N[C@H](C(=O)N2CCCCC2)CC(=O)N[C@H](C(C)C)C(=O)N(C)[C@@H](C)C(=O)N[C@@H](CCc2ccccc2Cl)C(=O)N(C)[C@@H](CC(C)C)C(=O)N[C@@H]([C@@H](C)O)C(=O)N(C)CC(=O)N1C [pd350] ([dV][NMeA][X14][NMeL]T[Sar][NMeL]S(tBu)[NMeF][NMeV]D-Piperidide; lactam N-11) | 1.7
CC(C)C[C@@H]1NC(=O)[C@H](CC(C)C)N(C)C(=O)CN(C)C(=O)[C@H]([C@@H](C)O)NC(=O)[C@H](CC(C)C)N(C)C(=O)[C@H](CCc2ccccc2Cl)NC(=O)[C@H](C)N(C)C(=O)[C@@H](C(C)C)NC(=O)C[C@@H](C(=O)N2CCCCC2)NC(=O)[C@H](C(C)C)N(C)C(=O)[C@H](Cc2ccccc2)N(C)C1=O [pd351] ([dV][NMeA][X14][NMeL]T[Sar][NMeL]L[NMeF][NMeV]D-Piperidide; lactam N-11) | 1.9
CC[C@H](C)[C@H]1C(=O)N[C@@H]([C@@H](C)O)C(=O)N(C)CC(=O)N(C)[C@@H](CC(C)C)C(=O)N[C@H](C(=O)N2CCCCC2)CC(=O)N(C)[C@@H](C)C(=O)N[C@@H](CCc2ccccc2Cl)C(=O)N(C)[C@@H](CC(C)C)C(=O)N(C)[C@@H](CC(C)C)C(=O)N[C@@H](C)C(=O)N(C)[C@@H](Cc2ccccc2)C(=O)N1C [pd352] ([NMeA][X14][NMeL][NMeL]A[NMeF][NMeI]T[Sar][NMeL]D-Piperidide; lactam N-11) | 1.4
CC(C)C[C@H]1C(=O)N[C@H](C(=O)N2CCCCC2)CC(=O)N(C)[C@@H](C)C(=O)N[C@@H](CCc2ccccc2Cl)C(=O)N(C)[C@@H](CC(C)C)C(=O)N(C)[C@@H](CC(C)C)C(=O)N[C@@H](C)C(=O)N(C)[C@@H](Cc2ccccc2)C(=O)N(C)[C@@H](C(C)C)C(=O)N[C@@H]([C@@H](C)O)C(=O)N(C)CC(=O)N1C [pd353] ([NMeA][X14][NMeL][NMeL]A[NMeF][NMeV]T[Sar][NMeL]D-Piperidide; lactam N-11) | 1.4
CC[C@H](C)[C@@H]1NC(=O)[C@H](Cc2ccccc2)N(C)C(=O)CN(C)C(=O)C[C@@H](C(=O)N2CCCCC2)NC(=O)[C@H](C(C)C)N(C)C(=O)[C@H](CCc2ccccc2Cl)NC(=O)[C@H](CC(C)C)N(C)C(=O)[C@H](CC(C)C)N(C)C(=O)CN(C)C(=O)[C@H]([C@@H](C)O)NC(=O)[C@H](CC(C)C)N(C)C1=O [pd354] ([Sar][NMeF]I[NMeL]T[Sar][NMeL][NMeL][X14][NMeV]D-Piperidide; lactam N-11) | 1.5
CC(C)C[C@@H]1NC(=O)[C@H](CC(C)C)N(C)C(=O)CN(C)C(=O)[C@H]([C@@H](C)O)NC(=O)[C@H](CC(C)C)N(C)C(=O)[C@H](CCc2cccc(Cl)c2)NC(=O)[C@H](C)N(C)C(=O)[C@@H](C(C)C)NC(=O)C[C@@H](C(=O)N2CCCCC2)NC(=O)[C@H](C(C)C)N(C)C(=O)[C@H](Cc2ccccc2)N(C)C1=O [pd355] ([dV][NMeA][hPhe(3-Cl)][NMeL]T[Sar][NMeL]L[NMeF][NMeV]D-Piperidide; lactam N-11) | 2.3
CC(C)C[C@H]1C(=O)N[C@H](C(=O)N2CCCCC2)CC(=O)N(C)[C@@H](C)C(=O)N[C@@H](CCc2cccc(Cl)c2)C(=O)N(C)[C@@H](CC(C)C)C(=O)N(C)[C@@H](CC(C)C)C(=O)N[C@@H](C)C(=O)N(C)[C@@H](Cc2ccccc2)C(=O)N(C)[C@@H](C(C)C)C(=O)N[C@@H]([C@@H](C)O)C(=O)N(C)CC(=O)N1C [pd356] ([NMeA][hPhe(3-Cl)][NMeL][NMeL]A[NMeF][NMeV]T[Sar][NMeL]D-Piperidide; lactam N-11) | 1.2
CC(C)C[C@H]1C(=O)N[C@@H](CCc2cccc(Cl)c2)C(=O)N(C)[C@@H](CC(C)C)C(=O)N[C@@H]([C@@H](C)O)C(=O)N(C)CC(=O)N(C)[C@@H](Cc2ccccc2)C(=O)N(C)[C@@H](CC(C)C)C(=O)N[C@@H](COC(C)(C)C)C(=O)N(C)[C@@H](C(C)C)C(=O)N[C@H](C(=O)N2CCCCC2)CC(=O)N(C)CC(=O)N1C [pd357] ([Sar][NMeL][hPhe(3-Cl)][NMeL]T[Sar][NMeF][NMeL]S(tBu)[NMeV]D-Piperidide; lactam N-11) | 1.3
CC(C)C[C@@H]1NC(=O)[C@H](CC(C)C)N(C)C(=O)CN(C)C(=O)[C@H]([C@@H](C)O)NC(=O)[C@H](CC(C)C)N(C)C(=O)[C@H](CCc2ccc(Cl)cc2)NC(=O)[C@H](C)N(C)C(=O)[C@@H](C(C)C)NC(=O)C[C@@H](C(=O)N2CCCCC2)NC(=O)[C@H](C(C)C)N(C)C(=O)[C@H](Cc2ccccc2)N(C)C1=O [pd360] ([dV][NMeA][hPhe(4-Cl)][NMeL]T[Sar][NMeL]L[NMeF][NMeV]D-Piperidide; lactam N-11) | 1.6
CC(C)C[C@H]1C(=O)N[C@H](C(=O)N2CCCCC2)CC(=O)N(C)[C@@H](C)C(=O)N[C@@H](CCCc2ccccc2)C(=O)N(C)[C@@H](CC(C)C)C(=O)N(C)[C@@H](Cc2ccccc2)C(=O)N[C@@H](C)C(=O)N(C)[C@@H](Cc2ccccc2)C(=O)N(C)[C@@H](C(C)C)C(=O)N[C@@H]([C@@H](C)O)C(=O)N(C)CC(=O)N1C [pd365] ([NMeA][hhPhe][NMeL][NMeF]A[NMeF][NMeV]T[Sar][NMeL]D-Piperidide; lactam N-11) | 1.5
